The text below walks through data of article PMC11642070, “OCTN1 (SLC22A4) as a Target of Heavy Metals: Its Possible Role in Microplastic Threats” (International Journal of Molecular Sciences, 2024).

Substitutions are numbered along the chain they refer to.

The conditions of data set [1]: according to ATSDR; ref https://www.atsdr.cdc.gov/toxprofiles; cited from earlier work.
The next data set concerns the target T1, human OCTN1 (Homo sapiens, UniProt Q9H015).
T1 construct: made in house; host or cells: E. coli Rosetta(DE3)pLysS
T1 sequence (Q9H015 1-551): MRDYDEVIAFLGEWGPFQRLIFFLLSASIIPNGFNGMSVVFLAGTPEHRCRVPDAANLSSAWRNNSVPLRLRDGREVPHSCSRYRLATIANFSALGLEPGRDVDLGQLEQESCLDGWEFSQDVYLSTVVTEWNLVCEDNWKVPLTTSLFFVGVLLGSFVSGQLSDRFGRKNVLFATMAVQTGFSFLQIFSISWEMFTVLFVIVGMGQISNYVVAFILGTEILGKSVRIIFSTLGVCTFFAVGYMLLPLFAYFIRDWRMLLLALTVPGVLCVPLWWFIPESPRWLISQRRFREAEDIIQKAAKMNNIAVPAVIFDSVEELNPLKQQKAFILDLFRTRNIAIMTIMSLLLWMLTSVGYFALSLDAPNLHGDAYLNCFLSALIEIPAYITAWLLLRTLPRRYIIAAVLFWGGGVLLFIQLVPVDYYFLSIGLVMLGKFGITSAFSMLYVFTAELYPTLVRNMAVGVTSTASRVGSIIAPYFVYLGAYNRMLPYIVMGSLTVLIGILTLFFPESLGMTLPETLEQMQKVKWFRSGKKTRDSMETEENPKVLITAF
It is filed as biochemical. The note with it: 60 min; for IC50: OCTN1 WT proteoliposomes, 0.1 mM [14C]-TEA, read-out: IC50 (µM) on [14C]-TEA uptake. On the procedure:
After desalting, the protein was reconstituted in liposomes. The composition of the initial mixture used for reconstitution was as follows: 50 µg of protein (or desalt buffer in liposomes without the incorporated protein), 80 µL of 10% C12E8, 120 µL of 10% egg yolk phospholipids with 25% cholesterol in the form of sonicated liposomes, 16 mM ATP disodium salt, and 5 mM BisTris/HCl (pH 7.5) in a final volume of 700 µL. The purified OCTN1 (WT or C-less mutant) was inserted in the liposomal membrane using the batch-wise technique. This procedure used 0.5 g of Amberlite XAD-4 to remove the detergent from mixed micelles consisting of proteins, phospholipids and detergent at 23 °C for 40 min at 1200 rpm, as previously described.
(§1) Proteoliposomes and liposomes (600 μL) were applied onto a Sephadex G-75 (Merck Life Science, Milan, Italy) column (0.7 cm diameter × 15 cm height) pre-equilibrated with 5 mM BIS-Tris/HCl (pH 8.0) and eluted with 600 μL of the same buffer. Samples of 100 μL each were prepared from the 600 μL pool. The transport was initiated by [^14C]-TEA or [^3H]-Ach at the concentration of 0.1 mM to the proteoliposome samples and stopped after 60 min according to the stop-inhibitor method. In the blank samples, the inhibitor (1 mM Hemicholinium-3) was added at time zero. After the transport time, each sample was applied onto a Sephadex G-75 column (0.6 cm diameter × 8 cm height) and pre-equilibrated with 50 mM NaCl to remove the radioactivity not taken up. Proteoliposomes were eluted with 50 mM NaCl (1 mL), added to 3 mL Pico-Fluor Plus, vortexed, and counted. The radioactivity in the blank samples was used to subtract background radioactivity from the protein-associated one.
All experimental data were derived from the mean of three independent experiments, and results were expressed as means ± SD. IC50 values were derived from data fitting the IC50 equation using Grafit v 5.0.13 software (Erithacus Software (v 5.0.13), East Grinstead, UK).

In a further data set the target is T2, Cys-less OCTN1 (Homo sapiens, UniProt Q9H015, C113A/C136A/C236A/C270A/C374A/C50A/C81A).
T2 construct: made in house; host or cells: E. coli Rosetta(DE3)pLysS
T2 sequence (Q9H015 1-551 C50A/C81A/C113A/C136A/C236A/C270A/C374A): T1 sequence (Q9H015 1-551) with C50A, C81A, C113A, C136A, C236A, C270A, C374A
In words: [14C]-TEA uptake by Cys-less OCTN1 mutant reconstituted in proteoliposomes. Format: biochemical. The note with it: 100 µM metal (250 µM CrCl2), 0.1 mM [14C]-TEA, 60 min. How it is done: The over-expression of OCTN1 wild type (WT) and C-less mutant proteins, as previously described in [17], has been performed in E. coli Rosetta(DE3)pLysS, as described in [60, 61].
After desalting, the protein was reconstituted in liposomes. The composition of the initial mixture used for reconstitution was as follows: 50 µg of protein (or desalt buffer in liposomes without the incorporated protein), 80 µL of 10% C12E8, 120 µL of 10% egg yolk phospholipids with 25% cholesterol in the form of sonicated liposomes, 16 mM ATP disodium salt, and 5 mM BisTris/HCl (pH 7.5) in a final volume of 700 µL. The purified OCTN1 (WT or C-less mutant) was inserted in the liposomal membrane using the batch-wise technique. […]
as §1, with “Samples of 100 μL each were prepared from the 600 μL pool. The transport was initiated by [^14C]-TEA or [^3H]-Ach at the concentration of 0.1 mM to the proteoliposome samples and stopped after 60 min according to the stop-inhibitor method. In the blank samples, the inhibitor (1 mM Hemicholinium-3) was added at time zero.” left out

For the molecule `[Cd]` [Cadmium], in data set [1], the “Level of Toxicity” value was “+++”.

For the molecule `[Cl][Cd][Cl]` [CdCl2, Cadmium chloride], the IC50 at human OCTN1 came out at 56 ± 4 µM.

As for `[Cr]` [Chromium], the “Level of Toxicity” value in data set [1] is reported as “+++”.

`[Cl][Cr][Cl]` [CrCl2, Chromium (II) chloride]: the “Effect of DTE and cysteine on the inhibition of [14C]-TEA transport by heavy metals” value at human OCTN1 (100 µM metal (250 µM CrCl2), 5 mM DTE or Cys) is “only exception”. The half-maximal inhibitory concentration (IC50) on human OCTN1 stood at 170 ± 15 µM. The “Inhibition of [14C]-TEA transport by Cys-less OCTN1” value at Cys-less OCTN1 was “only exception”.

Take `[Cl][Hg][Cl]` [HgCl2, Mercury (II) chloride]: on human OCTN1, the half-inhibitory concentration (IC50) is 121 ± 7 µM.

Take `O=[N+]([O-])[O-].O=[N+]([O-])[O-].[Pb+2]` [Pb(NO3)2, Lead nitrate]: the IC50 at human OCTN1 was 90 ± 19 µM.

Take `[Zn]` [Zinc]: the “Level of Toxicity” value in data set [1] is “+”.

For the molecule `[Cl-].[Cl-].[Zn+2]` [ZnCl2, Zinc chloride], the concentration for half-maximal inhibition (IC50) on human OCTN1 amounted to 57 ± 17 µM.
